From patent US20220062240A1, “METHODS OF TREATING CANCER USING A CLK INHIBITOR” (BioSplice Therapeutics, Inc., priority 2018, published 2022)
Like-named read-outs stand apart in the source and are kept apart here.

Tests used:
[1] = test system: liver cancer (3 cell lines); assay: CellTiter-Glo Viability Assay, liver cancer; format: cell-based; details: Homo sapiens, inhibition of cancer cell proliferation
[2] = test system: prostate cancer (5 cell lines); assay: CellTiter-Glo Viability Assay, prostate cancer; format: cell-based; details: Homo sapiens
CLK2 = biological target: T1, CLK2 (Homo sapiens, UniProt P49760); assay: CLK2 kinase activity assay (Z-lyte, Ser/Thr 6 peptide); format: biochemical; details: recombinant CLK2 kinase, ATP 60 μM; read-out: EC50
T1 construct: purchased Thermo Fisher (Life Technologies), Z'-LYTE Kinase Assay Kits
T1 sequence (P49760 whole entry): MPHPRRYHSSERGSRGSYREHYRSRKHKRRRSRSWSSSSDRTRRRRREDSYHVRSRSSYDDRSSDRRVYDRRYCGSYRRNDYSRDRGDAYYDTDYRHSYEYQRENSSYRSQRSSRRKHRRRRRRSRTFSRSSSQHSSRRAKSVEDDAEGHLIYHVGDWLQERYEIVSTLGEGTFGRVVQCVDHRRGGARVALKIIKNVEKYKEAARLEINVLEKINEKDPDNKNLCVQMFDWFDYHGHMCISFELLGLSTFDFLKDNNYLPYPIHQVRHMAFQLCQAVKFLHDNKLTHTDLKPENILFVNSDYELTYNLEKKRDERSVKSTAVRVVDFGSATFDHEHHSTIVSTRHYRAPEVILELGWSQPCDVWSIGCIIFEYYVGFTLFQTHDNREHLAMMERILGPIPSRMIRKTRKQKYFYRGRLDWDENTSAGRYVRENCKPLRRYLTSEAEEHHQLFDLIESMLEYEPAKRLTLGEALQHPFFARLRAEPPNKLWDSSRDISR
Description: All reactions were performed in duplicate.

[3] = test system: lung cancer (4 cell lines); assay: CellTiter-Glo Viability Assay, lung cancer; format: cell-based; details: Homo sapiens, inhibition of cancer cell proliferation
[4] = test system: colorectal cancer (6 cell lines); assay: CellTiter-Glo Viability Assay, colorectal cancer; format: cell-based; details: Homo sapiens, inhibition of cancer cell proliferation
[5] = test system: haematopoietic & lymphoid tumors (13 cell lines); assay: CellTiter-Glo Viability Assay, haematopoietic & lymphoid tumors; format: cell-based; details: Homo sapiens, inhibition of cancer cell proliferation
CLK3 = CLK3 (Homo sapiens, UniProt P49761); assay: CLK3 kinase activity assay (Z-lyte, Ser/Thr 18 peptide)
Chain of CLK3 (P49761 whole entry): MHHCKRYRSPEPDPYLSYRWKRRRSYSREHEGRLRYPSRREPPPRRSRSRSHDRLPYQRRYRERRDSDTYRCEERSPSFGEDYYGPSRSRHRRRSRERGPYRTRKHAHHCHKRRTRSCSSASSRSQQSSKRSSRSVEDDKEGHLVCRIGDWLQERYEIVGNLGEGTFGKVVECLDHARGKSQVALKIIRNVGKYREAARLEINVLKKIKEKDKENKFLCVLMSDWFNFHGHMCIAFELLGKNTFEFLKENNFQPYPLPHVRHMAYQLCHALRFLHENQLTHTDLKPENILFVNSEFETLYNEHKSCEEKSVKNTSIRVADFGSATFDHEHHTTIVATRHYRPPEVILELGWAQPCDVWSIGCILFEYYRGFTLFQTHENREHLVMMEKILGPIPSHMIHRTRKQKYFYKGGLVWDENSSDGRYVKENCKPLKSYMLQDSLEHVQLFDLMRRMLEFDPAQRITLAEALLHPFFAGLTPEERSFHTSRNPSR

[6] = test system: pancreatic cancer (8 cell lines); assay: CellTiter-Glo Viability Assay, pancreatic cancer; format: cell-based; details: Homo sapiens, inhibition of cancer cell proliferation
[7] = test system: ovarian cancer (4 cell lines); assay: CellTiter-Glo Viability Assay, ovarian cancer; format: cell-based; details: Homo sapiens, inhibition of cancer cell proliferation
all 50 cell lines = assay: CellTiter-Glo Viability Assay, average across all cell lines; format: cell-based; details: Homo sapiens; across all 50 cell lines; read-out: average EC50 for inhibition of cancer cell proliferation
Summary of the method: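 Proliferation of a multi-tissue human cancer line panel is assessed over four days at 37° C and 5% CO2, seeding 300-3,000 cells/well. Viability is quantified by CellTiter-Glo luminescence, and EC50 values are calculated.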

CAMA1 = assay: CellTiter-Glo Viability Assay, breast cancer; format: cell-based; details: Homo sapiens, CAMA-1, 96 h; CAMA1, breast cancer, four days; read-out: EC50
T47D = assay: CellTiter-Glo Viability Assay, breast cancer; format: cell-based; details: Homo sapiens, 96 h, breast cancer, four days, read-out: EC50
MCF7 = assay: CellTiter-Glo Viability Assay, breast cancer; format: cell-based; details: Homo sapiens, 96 h; MCF7, breast cancer, four days; read-out: EC50
HCC1599 = assay: CellTiter-Glo Viability Assay, breast cancer; format: cell-based; details: Homo sapiens, 96 h; HCC1599, breast cancer, four days; read-out: EC50
MDA-MB-231-Luc = assay: CellTiter-Glo Viability Assay, breast cancer; format: cell-based; details: Homo sapiens, 96 h; MDA-MB-231-Luc, breast cancer, four days; read-out: EC50
ZR-75-1 = assay: CellTiter-Glo Viability Assay, breast cancer; format: cell-based; details: Homo sapiens, 96 h; ZR-75-1, breast cancer, four days; read-out: EC50
DU4475 = assay: CellTiter-Glo Viability Assay, breast cancer; format: cell-based; details: Homo sapiens, DU-4475, 96 h; DU4475, breast cancer, four days; read-out: EC50
BT-549 = assay: CellTiter-Glo Viability Assay, breast cancer; format: cell-based; details: Homo sapiens, 96 h; BT-549, breast cancer, four days; read-out: EC50
[8] = SNU-398, SNU398 cell line, read-out: Liver cancer, EC50 SNU398
[9] = HEPG2 cell line, read-out: Liver cancer, EC50 HEPG2
[10] = PLC/PRF/5 cell line, read-out: Liver cancer, EC50 PLC/PRF/5
[11] = DU-145, read-out: Prostate cancer EC50 Du-145
[12] = PC-3, PC3 cell line, inhibition of cancer cell proliferation, read-out: Prostate cancer EC50 PC3
[13] = 22Rv1 cell line, inhibition of cancer cell proliferation, read-out: Prostate cancer EC50 22Rv1
[14] = LNCap clone FGC cell line, inhibition of cancer cell proliferation, read-out: Prostate cancer EC50 LNCap clone FGC
[15] = VCaP (Sigma) cell line, inhibition of cancer cell proliferation, read-out: Prostate cancer EC50 VCaP (Sigma)
[16] = A-427, A427 cell line, read-out: Lung cancer, EC50 (μM) A427
[17] = HCC78, HCC-78 cell line, read-out: Lung cancer, EC50 (μM) HCC-78
[18] = NCI-H460 cell line, read-out: Lung cancer, EC50 (μM) NCI-H460
[19] = NCI-H522 cell line, read-out: Lung cancer, EC50 (μM) NCI-H522
[20] = HCT-116, HCT116 cell line, read-out: Colorectal cancer, EC50 (μM) HCT116
[21] = HT-29, HT29 cell line, read-out: Colorectal cancer, EC50 (μM) HT29
[22] = SW-620, SW620 cell line, read-out: Colorectal cancer, EC50 (μM) SW620
[23] = DLD-1 cell line, read-out: Colorectal cancer, EC50 (μM) DLD-1
[24] = SW48 cell line, read-out: Colorectal cancer, EC50 (μM) SW48
[25] = SW480 cell line, read-out: Colorectal cancer, EC50 (μM) SW480
[26] = DND41, DND-41 cell line, read-out: Haematopoietic & Lymphoid tumors, EC50 (μM) DND-41
[27] = MV4-11, MV-4-11 cell line, read-out: Haematopoietic & Lymphoid tumors, EC50 (μM) MV-4-11
[28] = Rec1, REC-1 cell line, read-out: Haematopoietic & Lymphoid tumors, EC50 (μM) REC-1
[29] = SU-DHL-4, SUDHL4 cell line, read-out: Haematopoietic & Lymphoid tumors, EC50 (μM) SUDHL4
[30] = HL-60 cell line, read-out: Haematopoietic & Lymphoid tumors, EC50 (μM) HL-60
[31] = JM1 cell line, read-out: Haematopoietic & Lymphoid tumors, EC50 (μM) JM1
[32] = JURKAT, Clone E6-1 cell line, read-out: Haematopoietic & Lymphoid tumors, EC50 (μM) JURKAT, Clone E6-1
[33] = JeKo-1 cell line, read-out: Haematopoietic & Lymphoid tumors, EC50 (μM) JeKo-1
[34] = KASUMI-1 cell line, read-out: Haematopoietic & Lymphoid tumors, EC50 (μM) KASUMI-1
[35] = Loucy cell line, read-out: Haematopoietic & Lymphoid tumors, EC50 (μM) Loucy
[36] = MOLT-4 cell line, read-out: Haematopoietic & Lymphoid tumors, EC50 (μM) MOLT-4
[37] = TF-1 cell line, read-out: Haematopoietic & Lymphoid tumors, EC50 (μM) TF-1
[38] = TOLEDO cell line, read-out: Haematopoietic & Lymphoid tumors, EC50 (μM) TOLEDO
[39] = BXPC-3, BxPC3 cell line, read-out: Pancreatic cancer, EC50 BxPC3
[40] = CAPAN-1, Capan1 cell line, read-out: Pancreatic cancer, EC50 Capan1
[41] = Capan-2, Capan2 cell line, read-out: Pancreatic cancer, EC50 Capan2
[42] = MIA PaCa-2 cell line, read-out: Pancreatic cancer, EC50 MIA PaCa-2
[43] = PANC 05.04 cell line, read-out: Pancreatic cancer, EC50 PANC 05.04
[44] = PANC-1 cell line, read-out: Pancreatic cancer, EC50 PANC-1
[45] = UPAFII cell line, read-out: Pancreatic cancer, EC50 UPAFII
[46] = PA-1, PA1 cell line, read-out: Ovarian cancer, EC50 (μM) PA1
[47] = TOV112D, TOV-112D cell line, read-out: Ovarian cancer, EC50 (μM) TOV-112D
[48] = OV-90 cell line, read-out: Ovarian cancer, EC50 (μM) OV-90
[49] = OVCAR-3 cell line, read-out: Ovarian cancer, EC50 (μM) OVCAR-3

CN1CCN(c2cc(Nc3ncc4c(-c5ccc6ncccc6c5)c[nH]c4n3)ccn2)CC1 [Compound 67]
EC50 [1, 8]: 71 nM | EC50 [1, 9]: 3290 nM | EC50 [1, 10]: 3350 nM | EC50 [2, 11]: 654 nM | EC50 [2, 12]: 860 nM | EC50 [2, 13]: 348 nM | EC50 [2, 14]: 4690 nM | EC50 [2, 15]: 756 nM | EC50 (CLK2): 2.4 nM | EC50 [3, 16]: 0.502 µM | EC50 [3, 17]: 1.44 µM | EC50 [3, 18]: 0.919 µM | EC50 [3, 19]: 0.097 µM | EC50 [4, 20]: 0.318 µM | EC50 [4, 21]: 1.2 µM | EC50 [4, 22]: 0.156 µM | EC50 [4, 23]: 0.264 µM | EC50 [4, 24]: 0.147 µM | EC50 [4, 25]: 0.644 µM | EC50 [5, 26]: 0.221 µM | EC50 [5, 27]: 0.032 µM | EC50 [5, 28]: 0.149 µM | EC50 [5, 29]: 0.241 µM | EC50 [5, 30]: 1.54 µM | EC50 [5, 31]: 0.062 µM | EC50 [5, 32]: 0.298 µM | EC50 [5, 33]: 0.139 µM | EC50 [5, 34]: 0.11 µM | EC50 [5, 35]: 0.28 µM | EC50 [5, 36]: 0.381 µM | EC50 [5, 37]: 0.789 µM | EC50 [5, 38]: 0.108 µM | EC50 (CLK3): 10.3 nM | EC50 [6, 39]: 660 nM | EC50 [6, 40]: 583 nM | EC50 [6, 41]: 1120 nM | EC50 [6, 42]: 267 nM | EC50 [6, 43]: 3470 nM | EC50 [6, 44]: 1900 nM | EC50 [6, 45]: 511 nM | EC50 [7, 46]: 0.768 µM | EC50 [7, 47]: 0.421 µM | EC50 [7, 48]: 2.86 µM | EC50 [7, 49]: 0.291 µM | EC50 (all 50 cell lines): 1070 nM | EC50 (CAMA1): 1340 nM | EC50 (T47D): 4960 nM | EC50 (MCF7): 3700 nM | EC50 (HCC1599): 38 nM | EC50 (MDA-MB-231-Luc): 2700 nM | EC50 (ZR-75-1): 2920 nM | EC50 (DU4475): 247 nM | EC50 (BT-549): 731 nM

CN1CCC(Oc2ccc(C(=O)Nc3cc4cc(-c5cnn(C)c5)ccc4cn3)cc2)CC1 [Compound 68]
EC50 [1, 8]: 134 nM | EC50 [1, 9]: 597 nM | EC50 [1, 10]: 1270 nM | EC50 [2, 11]: 652 nM | EC50 [2, 12]: 602 nM | EC50 [2, 13]: 449 nM | EC50 [2, 14]: 651 nM | EC50 [2, 15]: 1380 nM | EC50 (CLK2): 0.6 nM | EC50 [3, 16]: 0.506 µM | EC50 [3, 17]: 1.14 µM | EC50 [3, 18]: 0.709 µM | EC50 [3, 19]: 0.277 µM | EC50 [4, 20]: 0.389 µM | EC50 [4, 21]: 0.774 µM | EC50 [4, 22]: 0.206 µM | EC50 [4, 23]: 0.35 µM | EC50 [4, 24]: 0.19 µM | EC50 [4, 25]: 0.546 µM | EC50 [5, 26]: 0.571 µM | EC50 [5, 27]: 0.07 µM | EC50 [5, 28]: 0.162 µM | EC50 [5, 29]: 0.523 µM | EC50 [5, 30]: 0.958 µM | EC50 [5, 31]: 0.165 µM | EC50 [5, 32]: 0.561 µM | EC50 [5, 33]: 0.176 µM | EC50 [5, 34]: 0.257 µM | EC50 [5, 35]: 0.317 µM | EC50 [5, 36]: 0.546 µM | EC50 [5, 37]: 0.649 µM | EC50 [5, 38]: 0.183 µM | EC50 (CLK3): 13.6 nM | EC50 [6, 39]: 443 nM | EC50 [6, 40]: 811 nM | EC50 [6, 41]: 1650 nM | EC50 [6, 42]: 279 nM | EC50 [6, 43]: 1040 nM | EC50 [6, 44]: 903 nM | EC50 [6, 45]: 435 nM | EC50 [7, 46]: 0.537 µM | EC50 [7, 47]: 0.327 µM | EC50 [7, 48]: 1.48 µM | EC50 [7, 49]: 0.232 µM | EC50 (all 50 cell lines): 632 nM | EC50 (CAMA1): 901 nM | EC50 (T47D): 1180 nM | EC50 (MCF7): 1820 nM | EC50 (HCC1599): 224 nM | EC50 (MDA-MB-231-Luc): 1110 nM | EC50 (ZR-75-1): 1370 nM | EC50 (DU4475): 487 nM | EC50 (BT-549): 421 nM
